Source: US6369101B1, “Therapeutic method to treat herpes virus infection” (Regents of the University of Minnesota, priority 1999, dated 2002)
Converted amounts (≈) assume the structure as drawn. Read-outs that look alike come from different tables or passages of the source.

Columns and labels:
[1] = system: HSV-1 strain E-377; experiment: CPE inhibition assay, HSV-1 E377 in human foreskin fibroblast cells; as to Qualitative CPE at 2.0 ml dose HSV-1 E377: key: +++ = Complete cytopathic effect; ++ = Moderate cytopathic effect; + = Minimum cytopathic effect; − = No cytopathic effect; format: cell-based, herpes simplex virus type 1; settings: for Qualitative CPE at 2.0 ml dose HSV-1 E377: solution conc. per compound (ng/ml) (Acyclovir 250); for EC50: Human alphaherpesvirus 1, HFF, read-out: EC50 HSV-1 E377
Description: (§1) Stock solutions of the compounds used for the testing of antiviral activity against HSV-1 and HSV-2 were prepared in distilled water, filtered through 0.2 μm filter (Acrodisco®, Gelman Sciences, USA) and stored at room temperature until used.
(§2) Human laryngeal epithelial carcinoma cells (HEp-2, ATCC, Rockville, Md.) were used for testing of antiviral compounds by cytopathic effect (CPE) inhibition and plaque reduction assay. Primary human foreskin fibroblast cells (HFF) obtained from Dr. E. R. Kern (Department of Pediatrics, University of Alabama Medical School, 309 Bevill Biomedical Research Building, 845 19th Street South, Birmingham, Ala., 35294-2170), were used for cytopathic effect (CPE) inhibition assay. HEp-2, African green monkey kidney cells (Vero, ATCC), HFF and primary rabbit kidney cells were used to determine the cytotoxic effect of compounds of formula I. These cells were propagated in Dulbeco's modified Eagle's medium (DMEM) (Sigma, USA) supplemented with 10% inactivated fetal calf serum (FCS), 25 mM HEPES, 0.2% sodium bicarbonate and 1% penicillin/-streptomycin at 37° C. in the presence of 5% CO2.
(§3) The antiviral activity of the test compounds was determined against HSV-1 strain F, HSV-2 strain G (ATCC), HSV-1 strain E-377 and HSV-2 strain MS (Dr. E. R. Kern, see above), CMV strain AD 169 (NIH), HCMV (NIH), MCMV (NIH), and VZV strain Ellen (NIH). Highly infective virus stocks of HSV-1 and HSV-2 were prepared by infecting a confluent monolayer of HEp-2 (ATCC) or HFF in 150 cm^2 plastic tissue culture flasks (Falcon, USA) at a multiplicity of infection of 0.5 in DMEM supplemented with 10% inactivated fetal calf serum and 1% penicillin/streptomycin at 37° C. in the presence of 5% CO2. The infected cells were disrupted through three freeze/thaw cycles, and viruses were clarified from large cell debris by low speed centrifugation at 3000 rpm for 10 minutes. The virus suspension was separated, aliquoted and stored at −80° C. until assayed or used for animal infection. The stock HSV-1 (E377) and HSV-2 (MS strain) contained 3.5×10^8 and 1.1×10^7 pfu/ml respectively.
(§4) Low passage HFF cells were seeded into 96-well tissue culture plates 24 hours prior to use at a cell concentration of 2.5×10^4 cells per ml in 0.2 ml of DMEM supplemented with 10% fetal calf serum. After 24 hours of incubation at 37° C. in the presence of 5% CO2, medium was removed and the test compounds were diluted two-fold in DMEM in the 96-well tissue culture plate containing monolayer. […] For both HSV-1 and HSV-2 assays, the virus concentration utilized was 1000 pfu/ml and for HCMV, MCMV, and VZV assay 2500 pfu/ml were used. The plates were then incubated at 37° C. in the presence of 5% CO2 for two to three days for HSV-1 and HSV-2, 10 days for VZV and 14 days for HCMV and MCMV. The virus induced cytopathic effect (CPE) was monitored microscopically every day. CPE of HSV-1 was recognized by cell rounding and clumping, while HSV-2 formed large syncytia along with rounding and clumping of cells. […] EC50s were estimated from graphical plots of percent CPE against the concentration of the test compounds. The EC50s for each compound are the mean of EC50s for three or more independent experiments. After three days of incubation period, media was aspirated and the cells stained with a 0.1% crystal violet solution for 30 minutes. The stain was then removed and the plates were rinsed with tap water, air dried and retained.

[2] = system: HSV-2 strain MS; experiment: CPE inhibition assay, HSV-2 MS in human foreskin fibroblast cells; as to Qualitative CPE at 2.0 ml dose HSV-2 MS: key: +++ = Complete cytopathic effect; ++ = Moderate cytopathic effect; + = Minimum cytopathic effect; − = No cytopathic effect; format: cell-based, herpes simplex virus type 2; settings: for Qualitative CPE at 2.0 ml dose HSV-2 MS: HFF cells, solution conc. per compound (ng/ml) (Acyclovir 250); for EC50: Human alphaherpesvirus 2, HFF, read-out: EC50 HSV-2 MS
Description: as §1, §2, §3, §4

[3] = system: Primary human foreskin fibroblast cells (HFF); experiment: Cell proliferation assay (cytotoxicity) in HFF cells; format: cell-based; settings: for Qualitative Cytotoxic Effect at 2.0 ml dose: HFF cells, solution conc. per compound (ng/ml) (Acyclovir 250); for CC50: Human foreskin fibroblast cells, reduces growth of uninfected cells by 50%
Description: as §2, with “Primary human foreskin fibroblast cells (HFF) obtained from Dr. E. R. Kern (Department of Pediatrics, University of Alabama Medical School, 309 Bevill Biomedical Research Building, 845 19th Street South, Birmingham, Ala., 35294-2170), were used for cytopathic effect (CPE) inhibition assay.” left out
(§5) HFF, Vero and HEp-2 cells were seeded in 24-well tissue culture plates at a concentration of […] in DMEM containing 10% FCS and incubated for 24 hours at 37° C. in the presence of 5% CO2. To the monolayer of these cells 0.5, 1.0, 1.5 and 2.0 ml of solution of antiviral compounds were added in the respective wells in duplicate and the cells were then incubated in a 5% CO2 incubator at 37° C. for 72 hours. The cells were observed daily for any change in morphology. […] At the end of this time, the media-drug solution was removed and the cells washed. One ml of 0.25% trypsin was added to each well and incubated until the cells start to come off of the plate. The cells-media mixture was then pipetted up and down several times to resuspend the cells and 0.2 ml of the cell suspension was added to 9.8 ml of trypan blue and cells were counted using hemocytometer. Each sample was counted three times with three replicate wells per sample.

[4] = system: HSV-1 strain F; experiment: CPE inhibition, HSV-1 strain F in HEp-2 cells; also: key: +++ = Complete cytopathic effect; ++ = Moderate cytopathic effect; + = Minimum cytopathic effect; − = No cytopathic effect; format: cell-based, herpes simplex virus type 1; settings: conc. per compound (ng/ml)
Source text: as §2, §3, §4

[5] = system: HSV-2 strain G; experiment: CPE inhibition, HSV-2 strain G in HEp-2 cells; also: key: +++ = Complete cytopathic effect; ++ = Moderate cytopathic effect; + = Minimum cytopathic effect; − = No cytopathic effect; format: cell-based, herpes simplex virus type 2; settings: conc. per compound (ng/ml)
Source text: as §2, §3, §4

[6] = system: Human laryngeal epithelial carcinoma cells (HEp-2); experiment: Cytotoxicity in HEp-2 cells; format: cell-based; settings: HEp-2 cells; conc. per compound (ng/ml)
Description: as §2, with “Primary human foreskin fibroblast cells (HFF) obtained from Dr. E. R. Kern (Department of Pediatrics, University of Alabama Medical School, 309 Bevill Biomedical Research Building, 845 19th Street South, Birmingham, Ala., 35294-2170), were used for cytopathic effect (CPE) inhibition assay.” left out
as §5

[7] = Cell proliferation assay (cytotoxicity) in HFF cells; format: cell-based, human; settings: Human foreskin fibroblast cells, reduces growth of uninfected cells by 50%
Description: as §2, with “Primary human foreskin fibroblast cells (HFF) obtained from Dr. E. R. Kern (Department of Pediatrics, University of Alabama Medical School, 309 Bevill Biomedical Research Building, 845 19th Street South, Birmingham, Ala., 35294-2170), were used for cytopathic effect (CPE) inhibition assay.” left out
as §5

[8] = primary human foreskin fibroblast (HFF) cells

CC(=O)OC1CCC2(C)C(CCC3(C)C2CCC2C4C5OC(=O)C4(CCC5(C)C)CCC23C)C1(C)C (stereo not drawn) [3β-Acetoxy-19αH-19,28lactone-oleanan, Allobetulin-3-acetyl lactone (3β-Acetoxy-19αH-19,28-lactone-oleanane)]
EC50 HSV-1 E377 ([1]; CPE inhibition in HFF cells): 0.225 µg/mL (≈ 0.451 µM) | Qualitative CPE at 2.0 ml dose HSV-1 E377 ([1]; HFF cells): +++ | EC50 HSV-2 MS ([2]; CPE inhibition in HFF cells): 0.125 µg/mL (≈ 0.251 µM) | Qualitative CPE at 2.0 ml dose HSV-2 MS [2]: ++ | Qualitative Cytotoxic Effect at 2.0 ml dose [3]: + | CC50 [3]: 0.225 µg/mL (≈ 0.451 µM) | Cytopathic Effect (CPE) Inhibition HSV-1 Strain F [4]: ++ | Cytopathic Effect (CPE) Inhibition HSV-2 Strain G [5]: ++ | Cell Cytotoxicity [6]: −

Allobetulin ethanolamine
EC50 HSV-1 E377 ([1]; CPE inhibition in HFF cells): >0.25 µg/mL | EC50 HSV-2 MS ([2]; CPE inhibition in HFF cells): >0.25 µg/mL | CC50 [3]: 0.2 µg/mL

CC1(C)CCC23CC[C@]4(C)C(CCC5[C@@]6(C)CCC(O)C(C)(C)C6CC[C@]54C)C2C1OC3=O (some centres unmarked) [Allobetulin lactone, Allobetulin-Lactone]
EC50 [1]: > 0.125 µg/mL | EC50 [2]: 0.2 µg/mL (≈ 0.438 µM) | CC50 at 72 h [7]: > 0.125 µg/mL | Cytopathic Effect (CPE) Inhibition HSV-1 Strain F [4]: +++ | Cytopathic Effect (CPE) Inhibition HSV-2 Strain G [5]: ++ | Cell Cytotoxicity [6]: −

CC1(C)CCC23CC[C@@]4(C)C(CCC5[C@@]6(C)CCC(OP(=O)(O)O)C(C)(C)C6CC[C@]54C)C2C1OC3 (some centres unmarked) [Allobetulin 3-phosphate, Allobetulin Phosphate]
EC50 HSV-1 E377 ([1]; CPE inhibition in HFF cells): >0.25 µg/mL | anti HSV-1 activity (in words) ([1]; HFF cells, HSV-1 (E377)): significant activity | EC50 HSV-2 MS ([2]; CPE inhibition in HFF cells): 0.25 µg/mL | CC50 [3]: >0.125 µg/mL | Cytopathic Effect (CPE) Inhibition HSV-1 Strain F [4]: +++ | Cytopathic Effect (CPE) Inhibition HSV-2 Strain G [5]: ++ | Cell Cytotoxicity [6]: −

CC1(C)CCC23CC[C@]4(C)C(CCC5[C@@]6(C)C=C(O)C(=O)C(C)(C)C6CC[C@]54C)C2C1OC3 (some centres unmarked) [Allobetulon-1,2-ene-2-ol, Allobetulon 1,2-ene-2-ol.]
Qualitative CPE at 2.0 ml dose HSV-1 E377 ([1]; HFF cells): +++ | EC50 ([1]; CPE inhibition in HFF cells): 0.22 µg/mL (≈ 0.484 µM) | Qualitative CPE at 2.0 ml dose HSV-2 MS [2]: +++ | EC50 ([2]; CPE inhibition in HFF cells): 0.165 µg/mL (≈ 0.363 µM) | CC50 at 72 h [7, 8]: 0.22 µg/mL (≈ 0.484 µM) | Qualitative Cytotoxic Effect at 2.0 ml dose [3]: − | Cytopathic Effect (CPE) Inhibition HSV-1 Strain F [4]: ++ | Cytopathic Effect (CPE) Inhibition HSV-2 Strain G [5]: ++ | Cell Cytotoxicity [6]: − | melting point: 236.8 to 238.8 °C

CC1(C)CCC23CC[C@]4(C)C(CCC5[C@@]6(C)CCC(=O)C(C)(C)C6CC[C@]54C)C2C1OC3 (some centres unmarked) [Allobetulon]
Qualitative CPE at 2.0 ml dose HSV-1 E377 ([1]; HFF cells): +++ | EC50 ([1]; CPE inhibition in HFF cells): 0.3 µg/mL (≈ 0.681 µM) | Qualitative CPE at 2.0 ml dose HSV-2 MS [2]: +++ | EC50 ([2]; CPE inhibition in HFF cells): 0.3 µg/mL (≈ 0.681 µM) | CC50 at 72 h [7, 8]: 0.3 µg/mL (≈ 0.681 µM) | Qualitative Cytotoxic Effect at 2.0 ml dose [3]: − | Cytopathic Effect (CPE) Inhibition HSV-1 Strain F [4]: ++ | Cytopathic Effect (CPE) Inhibition HSV-2 Strain G [5]: ++ | Cell Cytotoxicity [6]: −

CC1(C)CCC23CCC4(C)C(CCC5C6(C)CCC(OC(=O)CO)C(C)(C)C6CCC54C)C2C1OC3 (centres unmarked) [Allobetulin 3-glycolate, Allobetulin, 3-Glycolate]
EC50 HSV-1 E377 ([1]; CPE inhibition in HFF cells): >0.25 µg/mL | EC50 HSV-2 MS ([2]; CPE inhibition in HFF cells): 0.125 µg/mL (≈ 0.25 µM) | CC50 [3]: >0.25 µg/mL | Cytopathic Effect (CPE) Inhibition HSV-1 Strain F [4]: +++ | Cytopathic Effect (CPE) Inhibition HSV-2 Strain G [5]: ++ | Cell Cytotoxicity [6]: −
